Measurements: article PMC5769417, “Single- and Multiple-Dose Trials to Determine the Pharmacokinetics, Safety, Tolerability, and Sex Effect of Oral Ginsenoside Compound K in Healthy Chinese Volunteers” (Frontiers in Pharmacology, 2018)
Read-outs that look alike come from different tables or passages of the source.

Tests used:
[1] = Single-dose trial, plasma pharmacokinetics; type: in vivo, human; details: for Tmax / half-life / AUC(0-inf) / AUC(0-t) / MRT inf / MRT last / Cmax: both sexes, human, plasma; for Cmax: read-out: Cmax
Protocol: Single-dose pharmacokinetics: The single-dose trial was performed first. […] Drinking before and after medication was prohibited for 2 h, but the amount and time of drinking were not strictly controlled at other times. All subjects had standard lunch and dinner (unified light diet) after medication 4 and 10 h. Single-dose pharmacokinetics: […] We preserved 8 ml specimens into 10 ml centrifuge tubes and stored at −70°C for PK assessment. All samples were preserved at −70°C and analyzed with a LC-MS/MS (API 4000 LC-MS/MS, ABI Company, Foster City, CA, USA) at the Institute of Clinical Pharmacology, Central South University (Changsha, China). […] An aqueous solution of a stable internal standard (IS for CK: digoxin, Shijiaoke Biological Technology Co. Ltd., Beijing, China; IS for PPD: coumarin, Sigma-Aldrich, St. Louis, USA) and 1 M phosphate buffer were added to 0.5 ml of thawed sample, and analytical standards and quality control (QC) samples were prepared in the same matrix. All samples were treated with 2 ml of methyl tert-butyl ether (MTBE, CNW technologies GmbH, Duesseldorf, Germany) to precipitate the bulk of plasma proteins. After mechanical shock by mixing for 10 min and a subsequent centrifugation (4,000 rpm, 4°C, 10 min), 1.4 ml of the supernatant was transferred and blow-dried with nitrogen in a water bath at 40°C. Lastly, the residue was dissolved in 100 μl of mobile phase and then was subjected to a mechanical shock by mixing, and centrifuged. The supernatant was subsequently injected into the column for analysis. […] Accuracy and precision of the assay were determined by evaluating the performance of the assay controls. Over the quantification range, the accuracy of the QC samples varied from 85 to 115% and the intra- and inter-assay imprecision was <15%. PK parameters were derived according to noncompartmental analysis and actual elapsed time from dosing by WinNonlin version 6.1 (Pharsight Corporation, Mountain View, CA, USA). […] The area under the curve (AUC) from time zero to the last time point (AUClast) and the AUC extrapolated to infinity (AUCinf) were calculated using the linear trapezoidal rule. The slope (elimination rate constant, K) of the terminal phase of the plasma concentration-time profile was determined, using a weighting factor of 1, by the method of least squares (log-linear regression of at least three data points). The t1/2 was estimated as (ln2)/K. […] The apparent volume of distribution (V/F) was equal to (CL/F)/K. The mean residence time (MRT) was calculated as the area under the first moments curve (AUMC) divided by AUC. The dose-normalized PK parameters e.g., Cmax/D and AUClast/D, were obtained by dividing each PK result by the administered dose. The cumulative excretion rate was calculated as the amount of unchanged drug in the urine over a time interval divided by the dose and was expressed as thousand points (‰).

Sprague Dawley (SD) rats = details: cited from earlier work
[2] = single-dose trial, 25 mg oral, fasting
[3] = single-dose trial, 50 mg oral, fasting
[4] = single-dose trial, 100 mg oral, fasting
[5] = single-dose trial, 200 mg oral, fasting
[6] = single-dose trial, 400 mg oral, fasting
[7] = single-dose trial, 600 mg oral, fasting
[8] = single-dose trial, 800 mg oral, fasting

Work on `CC(C)=CCC[C@](C)(OC1O[C@H](CO)[C@@H](O)[C@H](O)[C@H]1O)[C@H]1CC[C@]2(C)[C@@H]1[C@H](O)C[C@@H]1[C@@]3(C)CC[C@H](O)C(C)(C)[C@@H]3CC[C@]12C` (stereo partly drawn) [CK, 20-O-beta-D-glucopyranosyl-20(S)-protopanaxadiol] yielded a Tmax ([1]; oral, both trials, all doses, read-out: range of time to maximum concentration (Tmax)) of 1.5 to 6 h, a Tmax ([1]; oral, medians, both trials, read-out: Tmax in this study) of 2.5 to 3.8 h and a half-life ([1]; oral, single-dose trial, 25–800 mg, read-out: mean t1/2 across the dose groups) of 13.5 to 26.2 h. It also gave a Tmax ([1]; oral, single-dose trial, 25–800 mg, read-out: median Tmax across the dose groups) of 2.5 to 3.3 h, a Tmax ([1]; po, 25 mg, single-dose trial, 25 mg oral, fasting, read-out: Tmax, median (range)) of 3 h and a Tmax ([1]; po, 50 mg, single-dose trial, 50 mg oral, fasting, read-out: Tmax, median (range)) of 3 h. For the same compound, the Tmax ([1]; po, 100 mg, single-dose trial, 100 mg oral, fasting, read-out: Tmax, median (range)) was 3 h, the Tmax ([1]; po, 200 mg, single-dose trial, 200 mg oral, fasting, read-out: Tmax, median (range)) was 3.3 h and the Tmax ([1]; po, 400 mg, single-dose trial, 400 mg oral, fasting, read-out: Tmax, median (range)) was 3 h. For the same compound, the AUC(0-inf) [1, 2] was 1270 ± 276 ng·h/mL, the AUC(0-t) [1, 2] was 1230 ± 267 ng·h/mL and the MRT inf [1, 2] was 10.9 ± 1.9 h. It also gave an MRT last [1, 2] of 8.9 ± 1.3 h, a Cmax [1, 2] of 175 ± 35.1 ng/mL and a half-life ([1]; single-dose trial, 25 mg oral, fasting, read-out: t1/2 (converted)) of 13.5 ± 0.6 h. The AUC(0-inf) [1, 3] was 2250 ± 861 ng·h/mL, the AUC(0-t) [1, 3] was 2120 ± 770 ng·h/mL and the MRT inf [1, 3] was 12.5 ± 2.4 h. The MRT last [1, 3] was 9.1 ± 0.7 h, the Cmax [1, 3] was 300 ± 98.5 ng/mL and the half-life ([1]; single-dose trial, 50 mg oral, fasting, read-out: t1/2 (converted)) was 15.9 ± 4.2 h. It also gave an AUC(0-inf) [1, 4] of 2820 ± 1440 ng·h/mL, an AUC(0-t) [1, 4] of 2760 ± 1420 ng·h/mL and an MRT inf [1, 4] of 13.7 ± 1 h. The MRT last [1, 4] was 11.4 ± 0.9 h, the Cmax [1, 4] was 351 ± 180 ng/mL and the half-life ([1]; single-dose trial, 100 mg oral, fasting, read-out: t1/2 (converted)) was 22.4 ± 3.3 h. It also gave an AUC(0-inf) [1, 5] of 6090 ± 3600 ng·h/mL, an AUC(0-t) [1, 5] of 5960 ± 3520 ng·h/mL and an MRT inf [1, 5] of 13.8 ± 1.6 h. The MRT last [1, 5] was 11.5 ± 1.4 h, the Cmax [1, 5] was 734 ± 408 ng/mL and the half-life ([1]; single-dose trial, 200 mg oral, fasting, read-out: t1/2 (converted)) was 21.6 ± 5.5 h. The AUC(0-inf) [1, 6] was 8240 ± 2050 ng·h/mL, the AUC(0-t) [1, 6] was 8100 ± 2020 ng·h/mL and the MRT inf [1, 6] was 14 ± 1.5 h. For the same compound, the MRT last [1, 6] was 11.9 ± 1.1 h, the Cmax [1, 6] was 1030 ± 295 ng/mL and the half-life ([1]; single-dose trial, 400 mg oral, fasting, read-out: t1/2 (converted)) was 22.3 ± 4 h. The AUC(0-inf) [1, 7] was 9280 ± 4240 ng·h/mL, the AUC(0-t) [1, 7] was 9090 ± 4200 ng·h/mL and the MRT inf [1, 7] was 15.9 ± 2.8 h. It also gave an MRT last [1, 7] of 12.7 ± 0.9 h, a Cmax [1, 7] of 1160 ± 466 ng/mL and a half-life ([1]; single-dose trial, 600 mg oral, fasting, read-out: t1/2 (converted)) of 26.2 ± 6.3 h. For the same compound, the AUC(0-inf) [1, 8] was 9200 ± 4180 ng·h/mL, the AUC(0-t) [1, 8] was 8990 ± 4100 ng·h/mL and the MRT inf [1, 8] was 14.7 ± 2.6 h. The MRT last [1, 8] was 12 ± 1.8 h, the Cmax [1, 8] was 1180 ± 445 ng/mL and the half-life ([1]; single-dose trial, 800 mg oral, fasting, read-out: t1/2 (converted)) was 25.7 ± 3 h. The CL/F [1, 2] was 20.5 ± 4.7 l·h ^−1, the V/F [1, 2] was 397 ± 86 L and the CL/F [1, 3] was 25.9 ± 11.2 l·h ^−1. For the same compound, the V/F [1, 3] was 559 ± 185 L, the CL/F [1, 4] was 44.5 ± 21.6 l·h ^−1 and the V/F [1, 4] was 1381 ± 546 L. For the same compound, the CL/F [1, 5] was 47.7 ± 31.2 l·h ^−1, the V/F [1, 5] was 1287 ± 563 L and the CL/F [1, 6] was 51.2 ± 12.3 l·h ^−1. The V/F [1, 6] was 1613 ± 379 L, the CL/F [1, 7] was 76.1 ± 32.1 l·h ^−1 and the V/F [1, 7] was 3057 ± 2094 L. The CL/F [1, 8] was 106 ± 50.3 l·h ^−1, the V/F [1, 8] was 3993 ± 2136 L and the “dose at which diarrhea symptom occurred” value (Sprague Dawley (SD) rats; long-term toxicity test, Sprague Dawley (SD) rats) was 150 mg/kg. For the same compound, the “No observed adverse effect level (NOAEL)” value (Sprague Dawley (SD) rats; rats) was 25.0 mg/kg.
